This is an account of results in PubChem BioAssay (NCI).

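Interpolation was linear, between the two tested concentrations surrounding the appropriate level; five concentrations were tested over 48 hours in 96-well plates. Abbreviation: GI50, concentration required for 50% inhibition of growth. The concentration for full growth arrest is given as TGI.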

Common to all, as to assay: DTP human tumour cell line panel, 48 h
For test [1], the system named is SNB-78 CNS.
The test system of test [2] is DMS 273 small cell lung.
Test [3] deals with KM20L2 colon.
Test [4] deals with DMS 114 small cell lung.
Test [5] relates to LXFL 529 NSCLC.
For test [6], the system named is DLD-1 colon.
Test [7] deals with M19-MEL melanoma.
Test [8] relates to HOP-18 NSCLC.
The subject of test [9] is RXF-631 renal.
Test [10] concerns XF 498 CNS.
Test [11] concerns SN12K1 renal.

As a reminder, the TGI is the concentration giving total growth inhibition. Lower therefore signals more potent growth arrest. On to `COc1cc(C=O)cc(O)c1O`, for which the TGI in [1], in [2], in test [3], in test [4], in test [5] and in [6] was > 100 µM each time. In addition, the TGI in [7] is > 100 µM.

One may read the GI50 as the concentration that inhibits growth by half. Take `O=c1c([OH2+])c(-c2ccc(O)cc2[O-])oc2cc(O)cc([O-])c12.O=c1c([OH2+])c(-c2ccc(O)cc2[O-])oc2cc(O)cc([O-])c12.[Ti+4]`: the GI50 in test [1], in test [2], in [8], in test [3], in test [4] and in test [5] was > 100 µM throughout. Also, the GI50 in test [6] and in [7] was > 100 µM in each case. The TGI in [1], in [2], in test [8], in test [3], in [4] and in test [5] was > 100 µM each time. Further, the TGI in [6] and in [7] was > 100 µM in each case.

Consider `O=c1ccnc2ccc3n[nH][nH]c3c12`, for which the concentration for total growth inhibition (TGI) in [1], in test [2], in test [8], in test [3], in test [4] and in test [9] was > 100 µM throughout. The TGI in [10], in test [5], in [6] and in test [7] was > 100 µM in each case.

For the compound `CCOC(=O)C(=O)NC12CC3CC(CC(C3)C1)C2`, the concentration for total growth inhibition (TGI) in test [2], in test [8], in test [3], in test [4], in test [9] and in test [10] was > 100 µM each time. Besides, the TGI in [5] and in [6] was > 100 µM throughout.

For `COc1cccc2c1C(=O)c1c(O)c3c(c(O)c1C2=O)C[C@@](O)(C(=O)CO)CC3OC1CC(NCCCC(OC(C)=O)OC(C)=O)C(O)C(C)O1` (stereo not given in full), the 50% growth inhibitory concentration (GI50) in test [8] is 0.00507 µM; in test [3] it was < 0.0001 µM; in test [4], < 0.0001 µM; in [10], 0.0001 µM; in test [7], < 0.0001 µM. The concentration for total growth inhibition (TGI) was determined as 0.167 µM in test [3]; 0.000341 µM in [4]; 0.000897 µM in [9]; 0.00872 µM in [5]; 0.000323 µM in [7].

Take `CN(C(=O)c1ccco1)C(=S)N1CCN(c2ccccn2)CC1`: the TGI in test [1], in test [2], in test [8], in test [3], in test [10] and in test [5] was > 100 µM throughout. The TGI in test [6] and in test [7] was > 100 µM each time.

As to `CCCN(CCC)C1=Nc2ccccc2-n2cnnc2C1`, the TGI in test [1], in [2], in [3], in test [4], in test [10] and in [5] was > 100 µM each time. In test [7], the TGI is > 100 µM.

Turning to `Cc1ccc(-c2cc(-c3ccco3)c(C#N)c(=O)n2C2OC(CO)C(O)C(O)C2O)cc1` (stereo not given), the TGI in test [1], in [2], in test [8], in [3], in test [4] and in test [5] was > 100 µM each time. Also, the total growth inhibition concentration (TGI) in test [6] was > 100 µM.

`CC1=C2C3OC(=O)C(C)C3CCC2(C)C=CC1=Nc1ccccc1` (stereo not given): the TGI in [1], in test [11], in test [2], in [8], in test [3] and in [4] was > 100 µM each time. For the same compound, the TGI in test [6] and in test [7] was > 100 µM in each case.

Take `CN(C(=O)c1ccc(OCCCC(=O)O)c(Cl)c1Cl)C1CCCC1`: the total growth inhibition concentration (TGI) in test [1], in test [11], in [2], in [8], in test [3] and in test [4] was > 100 µM each time. The TGI in [10] is 85.2 µM; in [6], > 100 µM; in [7], > 100 µM.
